Measured values as given in ChEMBL document CHEMBL1938273, “Design, synthesis and in vitro evaluation of novel bivalent S-adenosylmethionine analogues” (Bioorg Med Chem Lett, 2012).

What was measured:
[1] = target: T1, Met repressor (Escherichia coli) (UniProt C3SIU2); assay: Binding affinity to Escherichia coli metJ assessed as protein dimer-DNA complex formation using F-metC operator DNA by fluorescence anisotropy relative to 5'-[{(3''S)-4''-Benzylamino-3''-amino-4''-oxobutyl}dimethylamino]-5'-deoxyadenosine iodide ditrifluoroacetic acid salt
T1 sequence (whole entry): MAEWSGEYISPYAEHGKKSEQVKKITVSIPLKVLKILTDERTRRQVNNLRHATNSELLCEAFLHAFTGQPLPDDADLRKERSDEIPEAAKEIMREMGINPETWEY

Met repressor = target: T2, Met repressor (Escherichia coli, UniProt C3SIU2); assay: Binding affinity to Escherichia coli metJ in presence of operator DNA complex by filter binding study
T2 sequence (C3SIU2 whole entry): T1 sequence (whole entry)

[2] = target: T1, Met repressor (Escherichia coli); assay: Binding affinity to Escherichia coli metJ assessed as protein dimer-DNA complex formation using F-metC operator DNA by fluorescence anisotropy relative to 4-((((2R,3S,4R,5R)-5-(6-amino-9H-purin-9-yl)-3,4-dihydroxy-tetrahydrofuran-2-yl)methyl)(methyl)amino)-N-propylbutanamide

## C[N+](C)(CC[C@H](N)C(=O)NCc1cccc(CNC(=O)[C@@H](N)CC[N+](C)(C)C[C@H]2O[C@@H](n3cnc4c(N)ncnc43)[C@H](O)[C@@H]2O)c1)C[C@H]1O[C@@H](n2cnc3c(N)ncnc32)[C@H](O)[C@@H]1O (mixture of isomers)
[1]
  fold change (FC): 3.6

## C[S+](CC[C@H](N)C(=O)[O-])C[C@H]1O[C@@H](n2cnc3c(N)ncnc32)[C@H](O)[C@@H]1O (stereo partly specified) [ADEMETIONINE]
Met repressor
  Kd: 4 nM

## CN(CCCC(=O)NCCCCn1nnc2c1CCCCCC2OCCNC(=O)CCCN(C)C[C@H]1O[C@@H](n2cnc3c(N)ncnc32)[C@H](O)[C@@H]1O)C[C@H]1O[C@@H](n2cnc3c(N)ncnc32)[C@H](O)[C@@H]1O (stereo partly specified)
[2]
  fold change (FC): 13

## CN(CCCC(=O)NCCCCCCNC(=O)CCCN(C)C[C@H]1O[C@@H](n2cnc3c(N)ncnc32)[C@H](O)[C@@H]1O)C[C@H]1O[C@@H](n2cnc3c(N)ncnc32)[C@H](O)[C@@H]1O
[2]
  fold change (FC): 21

## CN(CCCC(=O)NCCOC1CCCCCc2c1nnn2CCNC(=O)CCCN(C)C[C@H]1O[C@@H](n2cnc3c(N)ncnc32)[C@H](O)[C@@H]1O)C[C@H]1O[C@@H](n2cnc3c(N)ncnc32)[C@H](O)[C@@H]1O (mixture of isomers)
[2]
  fold change (FC): 9.1

## C[N+](C)(CC[C@H](N)C(=O)NCc1ccc(CNC(=O)[C@@H](N)CC[N+](C)(C)C[C@H]2O[C@@H](n3cnc4c(N)ncnc43)[C@H](O)[C@@H]2O)cc1)C[C@H]1O[C@@H](n2cnc3c(N)ncnc32)[C@H](O)[C@@H]1O (mixture of isomers)
[1]
  fold change (FC): 2.4
